Source: patent US20260062422A1 (Halda Therapeutics OpCo, Inc., priority 2022, published 2026)

Assays:
VCaP cells = assay: Cellular growth inhibition assay for VCaP cells, CellTiter-Glo; format: cell-based, human; settings: 72 hours treatment, CellTiter-Glo 2.0
Description: VCaP cells were purchased from American Type Cell Culture (ATCC Cat #CRL2876) and then seeded on poly-D-lysine coated, black clear-bottom 384-well plates at 5000/well in 25 μL Dulbecco's Modified Eagle Medium (DMEM) supplemented with 10% w/w Fetal bovine serum (FBS) and 1% w/w Pen-Strep. Pen-Strep is a commercially available mixture of penicillin G and streptomycin, which is used in mammalian cell culture media to prevent bacterial contamination. Dulbecco's Modified Eagle Medium (DMEM) supplemented with 10% w/w fetal bovine serum (FBS) and 1% w/w Pen-Strep is herein referred to as Treatment Medium. Following seeding of cells in the plates, the plates were spun at 300×g for 30 seconds, then equilibrated to room temperature for 30 minutes, and then deposited in a humidified tissue culture incubator maintained at 37° C. with 5% CO2.
At 24 hours after seeding of the cells, dilutions of test compound were prepared in DMSO and dissolved in Treatment Medium, to achieve a final DMSO concentration of 0.5% w/w, thereby providing the Test Compound Solution. A 25 μL aliquot of the Test Compound Solution was added to cells in the well plates. An equal volume of a solution containing DMSO and Treatment Medium was used as a negative control. Following treatment of cells with Test Compound Solution or said equal volume of a solution containing DMSO and Treatment Medium, the plates were spun at 300×g for 30 seconds, and then left in an incubator for 72 hours.
At the end of the treatment duration, cell viability was quantified with CellTiter-Glo 2.0 reagent (Promega Cat #G9243). For this purpose, plates were equilibrated to room temperature for 30 minutes, and then 25 μL of CellTiter-Glo 2.0 reagent was added to cells in the plate wells. Plates were then agitated on a shaker for two minutes at 500 rpm and subsequently incubated at room temperature for 10 minutes. Following incubation, the plates were spun at 3000×g for 30 seconds, then sealed with an optical adhesive cover, and luminescence readings were measured with an EnVision Plate Reader.
Data was normalized using zero luminescence for baseline. A four-parameter non-linear regression curve fit was applied to dose-response data in GraphPad Prism data analysis software to determine the half-maximal growth inhibitory concentration (GI50) for each test compound.

T47D cells = assay: Cellular growth inhibition assay for T47D cells, CellTiter-Glo; format: cell-based, human; settings: 72 hours treatment, CellTiter-Glo 2.0 cell viability
Summary of the method: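 Cells are plated at 3000/well and allowed 24 h before treatment. Test compound in medium containing 0.5% DMSO is then added, with DMSO-only wells as negative control, and plates are incubated 72 h at 37 °C. ATP luminescence (CellTiter-Glo 2.0) is then fitted to four parameters to derive GI50.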

[1] = tested on: T-Rex 293 cell line SC3 cells lacking increased expression of androgen receptor protein; assay: Cellular growth inhibition, T-Rex 293 SC3 cells without doxycycline, CellTiter-Glo; format: cell-based; settings: T-Rex 293 SC3 cells not exposed to doxycycline, CellTiter-Glo 2.0
Description: (§1) The following types of cells were prepared for this experiment: (i) a T-Rex 293 cell line having increased expression of androgen receptor protein due to exposure to doxycycline and (ii) a T-Rex 293 cell line lacking increased expression of androgen receptor protein. Ability of the test compounds to inhibit proliferation of the foregoing cell types was evaluated according to the procedures set forth below.
(§2) The doxycycline-inducible androgen receptor protein expressing cell line was established using the following protocol: T-Rex 293 cells were purchased from Invitrogen (Cat #R71007) and transfected using Lipofectamine 2000 with the wild-type androgen receptor protein sequence cloned into the pcDNA4/TO vector. Transfected cells were selected using 400 μg/mL Zeocin (Invitrogen Cat #R25001). Following selection, single clones were raised and maintained in Dulbecco's Modified Eagle Medium (DMEM) supplemented with 10% w/w Tetracycline-free fetal bovine serum (FBS) and 250 μg/mL Zeocin. Clones were analyzed for expression of androgen receptor protein in the presence and absence of 10 ng/mL doxycycline (Sigma Cat #D9891), and a single doxycycline-inducible clone (hereinafter “SC3”) was selected for use in downstream assays.
(§3) The SC3 cells were seeded on poly-D-lysine coated, black clear-bottom 384-well plates at 2500/well, in 25 μL Phenol Red Free Dulbecco's Modified Eagle Medium (DMEM) supplemented with 10% w/w charcoal-dextran treated fetal bovine serum (FBS) and 1% w/w pen-strep, with or without 10 ng/mL doxycycline. Pen-Strep is a commercially available mixture of penicillin G and streptomycin, which is used in mammalian cell culture media to prevent bacterial contamination. Phenol Red Free Dulbecco's Modified Eagle Medium (DMEM) supplemented with 10% w/w charcoal-dextran treated fetal bovine serum (FBS) and 1% w/w pen-strep, with or without 10 ng/mL doxycycline is herein referred to as Treatment Medium. Following seeding of cells in the plates, the plates were spun at 300×g for 30 seconds, then equilibrated to room temperature for 30 minutes, and then deposited in a humidified tissue culture incubator maintained at 37° C. with 5% CO2.
(§4) At 24 hours after seeding of the cells, dilutions of test compound were prepared in DMSO and dissolved in Treatment Medium, to achieve a final DMSO concentration of 0.5% w/w, thereby providing the Test Compound Solution. A 25 μL aliquot of the Test Compound Solution was added to cells in the well plates. An equal volume of a solution containing DMSO and Treatment Medium was used as a negative control. Following treatment of cells with Test Compound Solution or said equal volume of a solution containing DMSO and Treatment Medium, the plates were spun at 300×g for 30 seconds, and then left in an incubator for 72 hours. At the end of the treatment duration, cell viability was quantified with CellTiter-Glo 2.0 reagent (Promega Cat #G9243). For this purpose, plates were equilibrated to room temperature for 30 minutes, and then 25 μL of CellTiter-Glo 2.0 reagent was added to cells in the plate wells. Plates were then agitated on a shaker for two minutes at 500 rpm and subsequently incubated at room temperature for 10 minutes. Following incubation, the plates were spun at 3000×g for 30 seconds, then sealed with an optical adhesive cover, and luminescence readings were measured with an EnVision Plate Reader. Data was normalized using zero luminescence for baseline. A four-parameter non-linear regression curve fit was applied to dose-response data in GraphPad Prism data analysis software to determine the half-maximal growth inhibitory concentration (GI50) for each test compound.

[2] = tested on: T-Rex 293 cell line SC3 cells having increased expression of androgen receptor protein due to exposure to doxycycline; assay: Cellular growth inhibition, T-Rex 293 SC3 cells with doxycycline (androgen receptor induced), CellTiter-Glo; format: cell-based; settings: T-Rex 293 SC3 cells with 10 ng/mL doxycycline (increased androgen receptor expression)
Description: as §1, §2, §3, §4

GI50 (VCaP cells; Homo sapiens, VCaP, 72 h)	Structure (SMILES)	GI50 ([1]; 72 h)	GI50 ([2]; 72 h)	other results
500 to 1500 nM	Cc1sc2c(c1C)C(c1ccc(CC(=O)NCCc3ncc(C(=O)N[C@H]4C(C)(C)[C@H](Oc5ccc(C#N)c(Cl)c5)C4(C)C)cn3)cc1)=N[C@@H](Cc1ncco1)c1nnc(C)n1-2 [Compound I-440]	> 3000 nM	–	GI50 (T47D cells; Homo sapiens, T47D, 72 h): 1500 to 3000 nM
–	Cc1sc2c(c1C)C(c1ccc(CC3CC(OC4CCN(c5ncc(C(=O)N[C@H]6C(C)(C)[C@H](Oc7ccc(C#N)c(Cl)c7)C6(C)C)cn5)CC4)C3)cc1)=N[C@@H](C)c1nnc(C)n1-2 (some centres unmarked) [Compound I-446]	–	–	GI50 (VCaP cells): 1500 to 3000 nM; GI50 (T47D cells): < 500 nM; GI50 ([1]; 72 hours): > 3000 nM
–	Cc1sc2c(c1C)C(c1ccc(OC[C@@H]3CCCN(c4cnc(C(=O)N[C@H]5C(C)(C)[C@H](Oc6ccc(C#N)c(Cl)c6)C5(C)C)cn4)C3)cc1)=N[C@@H](C)c1nnc(C)n1-2 [Compound I-588]	> 3000 nM	< 500 nM	GI50 (T47D cells; Homo sapiens, T47D, 72 h): 500 to 1500 nM
–	Cc1sc2c(c1C)C(c1ccc(N[C@H]3CCN(c4ncc(C(=O)N[C@H]5C(C)(C)[C@H](Oc6ccc(C#N)c(Cl)c6)C5(C)C)cn4)C3)cc1)=NC(Cc1ncco1)c1nnc(C)n1-2 (some centres unmarked) [Compound I-622]	< 500 nM	< 500 nM	–
–	Cc1sc2c(c1C)C(c1ccc(N[C@H]3CC[C@@H](Nc4ncc(C(=O)N[C@H]5C(C)(C)[C@H](Oc6ccc(C#N)c(Cl)c6)C5(C)C)cn4)CC3)cc1)=N[C@@H](Cc1ncco1)c1nnc(C)n1-2 [Compound I-623]	< 500 nM	< 500 nM	–
–	Cc1sc2c(c1C)C(c1ccc(N3CC[C@H](Nc4ncc(C(=O)N[C@H]5C(C)(C)[C@H](Oc6ccc(C#N)c(Cl)c6)C5(C)C)cn4)C3)cc1)=N[C@@H](Cc1ncco1)c1nnc(C)n1-2 [Compound I-624]	< 500 nM	< 500 nM	–
–	Cc1sc2c(c1C)C(c1ccc(N3CC4(CCN(c5ncc(C(=O)N[C@H]6C(C)(C)[C@H](Oc7ccc(C#N)c(Cl)c7)C6(C)C)cn5)CC4)C3)cc1)=NC(Cc1ncco1)c1nnc(C)n1-2 (some centres unmarked) [Compound I-625]	> 3000 nM	< 500 nM	–
–	Cc1sc2c(c1C)C(c1ccc(N3CCC(C)(Nc4ncc(C(=O)N[C@H]5C(C)(C)[C@H](Oc6ccc(C#N)c(Cl)c6)C5(C)C)cn4)CC3)cc1)=N[C@@H](Cc1ncco1)c1nnc(C)n1-2 [Compound I-626]	> 3000 nM	< 500 nM	–
–	Cc1sc2c(c1C)C(c1ccc(NCCC3CCN(c4ncc(C(=O)N[C@H]5C(C)(C)[C@H](Oc6ccc(C#N)c(Cl)c6)C5(C)C)cn4)CC3)cc1)=NC(Cc1ncco1)c1nnc(C)n1-2 (some centres unmarked) [Compound I-627]	< 500 nM	< 500 nM	–
–	Cc1sc2c(c1C)C(c1ccc(N3CC(N4CCN(c5ncc(C(=O)N[C@H]6C(C)(C)[C@H](Oc7ccc(C#N)c(Cl)c7)C6(C)C)cn5)CC4)C3)cc1)=NC(Cc1ncco1)c1nnc(C)n1-2 (some centres unmarked) [Compound I-628]	–	< 500 nM	GI50 ([1]; 72 hours): > 3000 nM
–	Cc1sc2c(c1C)C(c1ccc(NC3C[C@@H]4CCC[C@@H](C3)N4c3ncc(C(=O)N[C@H]4C(C)(C)[C@H](Oc5ccc(C#N)c(Cl)c5)C4(C)C)cn3)cc1)=N[C@@H](Cc1ncco1)c1nnc(C)n1-2 (some centres unmarked) [Compound I-629]	–	–	GI50 ([2]; 72 hours): < 500 nM; GI50 ([1]; 72 hours): > 3000 nM
–	Cc1sc2c(c1C)C(c1ccc(N[C@H]3CCN(c4ncc(C(=O)N[C@H]5C(C)(C)[C@H](Oc6ccc(C#N)c(Cl)c6)C5(C)C)cn4)C[C@@H]3F)cc1)=NC(Cc1ncco1)c1nnc(C)n1-2 (some centres unmarked) [Compound I-630]	< 500 nM	< 500 nM	–
–	Cc1sc2c(c1C)C(c1ccc(N3[C@@H]4CC[C@H]3C[C@@H](Nc3ncc(C(=O)N[C@H]5C(C)(C)[C@H](Oc6ccc(C#N)c(Cl)c6)C5(C)C)cn3)C4)cc1)=N[C@@H](Cc1ncco1)c1nnc(C)n1-2 [Compound I-631]	–	–	GI50 ([2]; 72 hours): < 500 nM; GI50 ([1]; 72 hours): > 3000 nM
–	Cc1sc2c(c1C)C(c1ccc(N3CCC4(CCCN(c5ncc(C(=O)N[C@H]6C(C)(C)[C@H](Oc7ccc(C#N)c(Cl)c7)C6(C)C)cn5)C4)C3)cc1)=N[C@@H](Cc1ncco1)c1nnc(C)n1-2 (some centres unmarked) [Compound I-632]	> 3000 nM	< 500 nM	–
< 500 nM	Cc1sc2c(c1C)C(c1ccc(NCC3CC4(C3)CN(c3ncc(C(=O)N[C@H]5C(C)(C)[C@H](Oc6ccc(C#N)c(Cl)c6)C5(C)C)cn3)C4)cc1)=N[C@@H](Cc1ncco1)c1nnc(C)n1-2 [Compound I-660]	< 500 nM	–	GI50 (T47D cells; Homo sapiens, T47D, 72 h): < 500 nM
< 500 nM	Cc1sc2c(c1C)C(c1ccc(NCCN3CCN(c4ncc(C(=O)N[C@H]5C(C)(C)[C@H](Oc6ccc(C#N)c(Cl)c6)C5(C)C)cn4)CC3)cc1)=NC(Cc1ncco1)c1nnc(C)n1-2 (some centres unmarked) [Compound I-661]	< 500 nM	–	–
< 500 nM	Cc1sc2c(c1C)C(c1ccc(N3CCC[C@@H](CNc4ncc(C(=O)N[C@H]5C(C)(C)[C@H](Oc6ccc(C#N)c(Cl)c6)C5(C)C)cn4)C3)cc1)=NC(Cc1ncco1)c1nnc(C)n1-2 (some centres unmarked) [Compound I-662]	500 to 1500 nM	–	–
< 500 nM	Cc1sc2c(c1C)C(c1ccc(N[C@H]3CC[C@H](Nc4ncc(C(=O)N[C@H]5C(C)(C)[C@H](Oc6ccc(C#N)c(Cl)c6)C5(C)C)cn4)CC3)cc1)=N[C@@H](Cc1ncco1)c1nnc(C)n1-2 [Compound I-663]	< 500 nM	–	–
< 500 nM	Cc1sc2c(c1C)C(c1ccc(N3C[C@H](F)C[C@@H](Nc4ncc(C(=O)N[C@H]5C(C)(C)[C@H](Oc6ccc(C#N)c(Cl)c6)C5(C)C)cn4)C3)cc1)=NC(Cc1ncco1)c1nnc(C)n1-2 (some centres unmarked) [Compound I-664]	< 500 nM	–	–
< 500 nM	Cc1sc2c(c1C)C(c1ccc(N3C[C@H]4C[C@@H]3CN4c3ncc(C(=O)N[C@H]4C(C)(C)[C@H](Oc5ccc(C#N)c(Cl)c5)C4(C)C)cn3)cc1)=NC(Cc1ncco1)c1nnc(C)n1-2 (some centres unmarked) [Compound I-665]	< 500 nM	–	–
